Measurements from US5759785A, “Method of identifying hormone antagonists and agonists” (Baylor College of Medicine, priority 1995, dated 1998).

Tests used:
[1] = biological target: T1, Human ER (Homo sapiens, UniProt P03372); assay: Electrophoretic mobility shift assay, translated ER binding to an ERE; type: biochemical; settings: 100 nM ligand; 10 mM MgCl2, 37° C.
T1 sequence (P03372 1-595): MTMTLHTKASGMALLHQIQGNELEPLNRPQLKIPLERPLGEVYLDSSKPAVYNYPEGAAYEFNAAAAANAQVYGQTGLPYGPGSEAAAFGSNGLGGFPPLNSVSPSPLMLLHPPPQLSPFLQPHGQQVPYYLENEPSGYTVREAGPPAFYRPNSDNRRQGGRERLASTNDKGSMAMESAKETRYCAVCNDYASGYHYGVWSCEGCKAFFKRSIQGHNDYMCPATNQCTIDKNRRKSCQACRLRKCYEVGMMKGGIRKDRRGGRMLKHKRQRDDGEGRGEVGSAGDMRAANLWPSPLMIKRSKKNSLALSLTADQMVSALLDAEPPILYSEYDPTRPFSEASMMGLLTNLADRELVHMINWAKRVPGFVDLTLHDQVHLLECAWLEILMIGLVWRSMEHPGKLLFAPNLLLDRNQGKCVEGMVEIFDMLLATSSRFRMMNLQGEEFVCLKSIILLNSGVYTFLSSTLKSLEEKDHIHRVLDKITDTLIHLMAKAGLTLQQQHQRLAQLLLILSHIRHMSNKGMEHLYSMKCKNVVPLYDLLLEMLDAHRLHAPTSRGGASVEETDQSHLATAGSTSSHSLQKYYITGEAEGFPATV
Description: (§1) EMSAs were carried out as previously described (Bagchi et al., Mol. Cell. Biol., 2:1221, 1988), except that 100 ng (PR) or 1 μg (ER) of Poly(dI-dC)(dI-dC) were used as competitor and 10 mM MgCl2 was used when testing estrogen receptor. 4 μl of unlabeled translation mix were used per 10 μl reaction. Proteins were incubated with ligand at room temperature (PR) or 37° C. (ER) for 10 minutes, followed by the addition of DNA and further incubation for 10 minutes. For the experiment in FIG. 2, all incubations were carried out at 30° C. in the presence of 300 U/ml calf intestinal alkaline phosphatase. All mixing was done by gentle vortexing. DNA-protein complexes were resolved on 4% (w/v) gels.

[2] = test system: ER; settings: cited from earlier work
[3] = test system: A-form human PR; assay: Electrophoretic mobility shift assay, in vitro translated PR binding to a PRE; type: biochemical; settings: 100 nM ligand (progesterone also 10 nM)
Description: as §1
Hormone-dependent activity of the in vitro synthesized PR was measured, i.e., its ability to bind DNA specifically was examined by electrophoretic mobility shift assay (EMSA) (FIG. 1A). Unlabeled receptors were incubated with a ^32 P-end-labeled oligonucleotide equivalent to a PRE from the tyrosine aminotransferase gene upstream region.

[4] = test system: A-form human PR; assay: Limited proteolytic digestion of translated PR; type: biochemical; settings: 100 nM ligand; for proteolytic fragment pattern / conformational change of PR: trypsin (Org compounds) or subtilisin (R5020); for protease-resistant PR fragment: chymotrypsin, trypsin or subtilisin digestion
Description: (§2) To 5 μl of hormone-treated (10 minutes at room temperature (PR) or 37° C. (ER)) labeled translation mix, 0.5 μl of protease (diluted in water) was added followed by incubation for 10 minutes. The rate of digestion is dependent on the concentration of enzyme used. ER translation mixes were made 10 mM in MgCl2 before hormone addition. 0.5 μl was removed and mixed with 10 μl of denaturing loading dye, boiled for 5 minutes, and immediately loaded on 1.5 mm thick 0.1% (w/v) sodium dodecyl sulphate-12% (w/v) polyacrylamide gels. Denaturing gel electrophoresis was performed as described in Promega's translation handbook. Following electrophoresis, gels were treated with 30% (v/v) methanol/10% (v/v) acetic acid, then with EN^3 HANCE, and were vacuum dried at 60° C. for 30 minutes, followed by 80° C. for 45 minutes. Autoradiography was performed overnight. Promega's rabbit reticulocyte lysates average a protein concentration of 130 mg/ml; 5 μg of protease per ml of translation mix is therefore roughly equivalent to 60 ng of protease per mg of protein.
Proteolytic analysis is a powerful method for analyzing conformation changes within proteins. [^35 S]methionine-labeled PR was treated with progesterone, Ru38486 or ethanol, then digested for a short period of time with different amounts of various proteases. Digestion products were analyzed by denaturing gel electrophoresis.

[5] = biological target: T2, hPR (Homo sapiens, UniProt P06401); assay: Bandshift analysis of T47D extract hPR with C-262 antibody supershift; type: biochemical; settings: T47D extracts; 100 nM ligand
T2 sequence (P06401 1-933): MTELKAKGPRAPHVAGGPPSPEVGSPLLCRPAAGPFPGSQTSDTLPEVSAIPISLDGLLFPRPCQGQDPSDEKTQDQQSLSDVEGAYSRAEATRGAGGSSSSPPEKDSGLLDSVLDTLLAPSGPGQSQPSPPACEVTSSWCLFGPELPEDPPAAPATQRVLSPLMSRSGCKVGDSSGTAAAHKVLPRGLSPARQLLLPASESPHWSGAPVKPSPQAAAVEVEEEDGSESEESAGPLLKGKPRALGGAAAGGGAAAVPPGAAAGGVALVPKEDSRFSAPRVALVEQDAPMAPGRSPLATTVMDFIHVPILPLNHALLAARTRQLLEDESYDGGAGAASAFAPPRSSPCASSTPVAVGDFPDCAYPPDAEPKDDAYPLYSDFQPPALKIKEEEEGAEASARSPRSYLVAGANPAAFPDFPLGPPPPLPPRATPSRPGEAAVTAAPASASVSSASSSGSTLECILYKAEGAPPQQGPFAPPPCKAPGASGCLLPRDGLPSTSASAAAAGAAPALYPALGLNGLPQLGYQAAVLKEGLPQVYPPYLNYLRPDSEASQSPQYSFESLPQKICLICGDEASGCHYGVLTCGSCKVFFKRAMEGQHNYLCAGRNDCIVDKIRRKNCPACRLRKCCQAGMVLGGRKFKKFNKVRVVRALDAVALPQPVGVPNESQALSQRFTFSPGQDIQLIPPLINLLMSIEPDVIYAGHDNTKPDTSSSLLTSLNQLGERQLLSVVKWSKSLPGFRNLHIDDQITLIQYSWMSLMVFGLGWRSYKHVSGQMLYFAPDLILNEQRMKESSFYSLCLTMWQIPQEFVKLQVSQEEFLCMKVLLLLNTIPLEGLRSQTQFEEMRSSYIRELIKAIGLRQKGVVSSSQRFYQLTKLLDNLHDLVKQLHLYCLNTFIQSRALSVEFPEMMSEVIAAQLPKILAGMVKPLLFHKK
Description: In panel (A), T47D extracts were treated in vitro with 100 nM progesterone (P, lanes 2, 5, 8, 11 and 13), RU486 (R, lanes 3, 6 and 9) or with an equal amount (0.01% (v/v)) of ethanol carrier (-, lanes 1, 4, 7, 10, 12 and 14), followed by the addition of N-terminal-binding (AB52, lanes 7 to 9 and 14) or C-terminal-binding (C-262, lanes 4 to 13) anti-hPR monoclonal antibodies, or a control anti-cPR antibody (PR22, lanes 1 to 3). […] Binding to a PRE was assessed by bandshift analysis. The positions of specific DNA-protein complexes and of free probe are indicated. (B) The effect of ligands on C-262 supershifting was tested as in (A), except that extracts were treated with 100 nM Org31376 (OI, lanes 3, 7 and 11), Org31806 (OII, lanes 4, 8 and 12) or progesterone (P, lanes 2, 6 and 10).
A monoclonal antibody (C-262), which was raised against the C-terminal 14 amino acids of PR was used to determine if there was a difference in the accessibility of the epitope when the receptor was bound to an agonist or an antagonist.
The epitope recognized by C-262 antibody was the C-terminus of the receptor. A peptide corresponding to the C-terminal 14 amino acid tail was preincubated with the antibody prior to addition to the band-shift reaction.

[6] = test system: progesterone action; settings: cited from earlier work
[7] = test system: retinoic acid receptor (RAR); assay: Trypsin digestion of translated RAR; type: biochemical; settings: preincubated with 2 μM retinoic acid
Description: as §2
(§3) The receptors were translated as a polypeptides of predicted molecular weight (FIG. 7A and 7B, lane 1). Trypsin digestion of RAR and TR which had been preincubated with 2 μM retinoic acid and 10^-T MT3 produced a resistant 31 kd fragment, which was not detectable following digestion of carrier-treated receptor (compare lanes 2-6 with lanes 8-12). […]

[8] = test system: thyroxine receptor (TR); assay: Trypsin digestion of translated TR; type: biochemical; settings: preincubated with 10^-T MT3
Description: as §2, §3

CCCCN(C)C(=O)CCCCCCCCCC[C@@H]1Cc2cc(O)ccc2[C@H]2CC[C@]3(C)[C@@H](O)CC[C@H]3[C@H]12 [ICI 164,384]
binding of translated ER to an ERE (EMSA) [1]: induces high affinity DNA binding
agonistic activity [2]: no detectable agonistic activity

C[C@H]1CC2=CC(=O)CCC2=C2[C@@H]1[C@@H]1CC[C@@]3(CCCO3)[C@@]1(C)C[C@@H]2c1ccc(N(C)C)cc1 [Org 31806]
binding of translated PR to a PRE (specific DNA-protein complex, EMSA) [3]: induce binding of translated PR to a PRE in vitro
proteolytic fragment pattern / conformational change of PR [4]: indistinguishable from that induced by Ru38486
recognition (supershift) of ligand-bound hPR-DNA complex by C-262 antibody [5]: resulted in supershifting of PR-DNA complexes
antagonism of progesterone action in vivo [6]: strongly antagonize progesterone action in vivo

CCC(=O)[C@@]1(C)CC[C@H]2[C@@H]3CCC4=CC(=O)CCC4=C3CC[C@@]21C [R5020]
proteolytic fragment pattern / conformational change of PR [4]: R5020 and progesterone induced the same conformational changes

CC#C[C@]1(O)CC[C@H]2[C@@H]3CCC4=CC(=O)CCC4=C3[C@@H](c3ccc(N(C)C)cc3)C[C@@]21C [Ru38486]
binding of translated PR to a PRE (specific DNA-protein complex, EMSA) [3]: promoted binding to the PRE that was at least as strong as that induced by an equal concentration (100 nM) of progesterone
protease-resistant PR fragment [4]: 27 kd
recognition (supershift) of ligand-bound hPR-DNA complex by C-262 antibody [5]: exposed

C[C@]12CC[C@@H]3c4ccc(O)cc4CC[C@H]3[C@@H]1CC[C@@H]2O [estradiol, 17β-estradiol]
binding of translated PR to a PRE (specific DNA-protein complex, EMSA) [3]: failed to induce a specific complex

CC(=O)[C@H]1CC[C@H]2[C@@H]3CCC4=CC(=O)CC[C@]4(C)[C@H]3CC[C@]12C [progesterone]
binding of translated PR to a PRE (specific DNA-protein complex, EMSA) [3]: Specific DNA-protein complexes were obtained
protease-resistant PR fragment [4]: 30 kd
recognition (supershift) of ligand-bound hPR-DNA complex by C-262 antibody [5]: almost totally prevented recognition of the receptor by C-262 antibody

CC1=C(/C=C/C(C)=C/C=C/C(C)=C/C(=O)O)C(C)(C)CCC1 [retinoic acid]
trypsin-resistant RAR fragment [7]: 31 kd

thyroxine [T3]
trypsin-resistant TR fragment [8]: 31 kd
